Tested on: HuH-7 cells (human hepatoma cell line)
Assay: Evaluation of liver-targeting: uptake of tritium-labeled siRNA composition
Type: cell-based
Settings: carriers of Examples 2 to 6 or Comparative Example 1 with tritium-labeled siRNA 100 nM, eight hours, by content (mg) of the Example 1 derivative
Description: (1) Preparation of a Nucleic Acid Solution
A nucleic acid solution containing a tritium-labeled siRNA composed of an oligo RNA having a sequence of SEQ ID NO 1 and an oligo RNA having a sequence of SEQ ID NO 2 was prepared by introducing tritium-labeled [2,5′,8-3H]adenosine 5′-triphosphate ammonium salt (manufactured by Amersham Bioscience), using in-vitro Transcription T7 Kit (manufactured by Takara Bio). The siRNA concentration in the nucleic acid solution was 20 μM. The specific activity was 6.4×10^5 dpm/μg.
341.25 μL of a nucleic acid solution containing 20 μM of a tritium-unlabeled siRNA composed of an oligo RNA having a sequence of SEQ ID NO 1 and an oligo RNA having a sequence of SEQ ID NO 2 was added to 8.75 μL of the nucleic acid solution prepared in the above step, thereby preparing a nucleic acid solution having a specific activity of 1.6×10^4 dpm/μg.
(2) Preparation of a Composition […]
HuH-7 cells (human hepatoma cell line) were seeded on a 6-well plate at 2.5×10^5 cells/well, and were incubated for 18 hours at 37° C. under 5% CO2. […] 4 mL of a liquid scintillation cocktail (Emulsifier Scintillator Plus, manufactured by Perkin Elmer) was added to each of the vials and mixed well, and the radioactivity was counted with a liquid scintillation counter (manufactured by Perkin Elmer).

N-[1-(D)-deoxylactito-1-yl]oleamide [Example 1]
liver-targeting potency (radioactivity of cells, FIG. 1): increases depending on the content

From patent US7820629B2, “Galactose derivative, drug carrier and medicinal composition” (Nippon Shinyaku Co., Ltd., priority 2006, dated 2010)
